Data set [1] deals with HBV. In words: HBV-DNA antiviral assay using HepG2.117 cells. The class given is cell-based, HBV genotype D. The settings on record: Hepatitis B virus, HepG2.117, 72 h. As for the experimental part:
(§1) The following assay procedure describes the HBV antiviral assay, using HepG2.117 cells, which carry a stably integrated genotype D HBV genome under the control of a Tet-off promoter, and intracellular HBV DNA quantification as endpoint. Cell viability is assessed in parallel by measuring the intracellular ATP content using CellTiter-Glo 2.0 (Promega).
On day 0, HepG2.117 cells (which are maintained in routine cell culture with doxycycline present in the medium at a final concentration of 1 μg/mL) are seeded in 96-well plates (white with clear bottom) at a density of 2.0×10^4 cells/well (0.1 mL/well) in medium without doxycycline to induce pgRNA transcription and subsequent formation of HBV particles. The cells are incubated at 37° C. and 5% CO2.
(§2) On day 1, medium is removed from each well, the test articles are diluted in culture medium without doxcycyline and 100 μL was added to cell culture wells (9 concentrations, 4-fold dilution). For each plate, 6 untreated (merely DMSO) wells are included. The final concentration of DMSO in the culture medium is 2%. Each plate is prepared in duplicate (one for HBV DNA extraction, one for CellTiter-Glo 2.0 measurement). The cells are incubated at 37° C. and 5% CO2 for 3 days.
(§3) On day 4, cell viability is assessed using CellTiter-Glo 2.0 and cell lysates are prepared for HBV DNA extraction and subsequent quantification by qPCR.
HBV DNA Quantification by qPCR
Medium is removed from each well and 100 μL of 0.33% NP-40 in H2O was added to each well. Plates are sealed, incubated at 4° C. for 5 mins, vortexed extensively and centrifuged briefly. Next, 35 μL of lysate is added to 65 μL QuickExtract DNA Extraction Solution (Epicentre) in a PCR plate for each well. PCR plate is incubated at 65° C. for 6 mins, 98° C. for 2 mins and finally cooled to 4° C. HBV DNA is then quantified by qPCR with HBV-specific primers and probes as specified in Table 3 using the Bio-Rad SSOAdvanced Universal Probes Supermix on a CFX96 machine (Bio-Rad). The PCR cycle program consisted of 95° C. for 3 mins, followed by 40 cycles at 95° C. for 10 sec and 60° C. for 30 sec.
A DNA standard is prepared by dilution of an IDT gBlock corresponding to the amplicon with concentrations ranging from 10^2 to 10^8 copies/input (i.e., per 4 μL) and used to generate a standard curve by plotting Cq values vs. HBV DNA standard concentration. The quantity of HBV DNA in each sample is determined by interpolating from the standard curve.
(§4) Cell viability is calculated as follows: % Cell viability=(luminescence value of test sample)/(average luminescence value of 2% DMSO control)×100%. HBV DNA inhibition was calculated as follows: 100−(HBV DNA copy number of test sample)/(average HBV DNA copy number of 2% DMSO control)×100%. No normalization to entecavir is required due to the excellent dynamic window of this assay. The CC50, EC50 and EC9o values were determined by dose-response curves fitted using non-linear regression.

Data set [2] is described as follows: Cell viability by CellTiter-Glo 2.0 (intracellular ATP content) in HepG2.117 cells. In kind it is cell-based. The settings on record: human, CellTiter-Glo 2.0, 3 days incubation. As for the experimental part:
as §1, §2, §3
Using the other plates, the cell viability is quantified by CellTiter-Glo 2.0 according to the manufacturer's manual. In brief, 100 μL of reagent solution is added to the culture plates and shaken for 2′. The plates are incubated at rt for 10 min and luminescence signal is subsequently measured on a VarioSkan Lux (ThermoFisher) plate reader.
as §4
Background: In ATP-based viability assays light output follows the ATP content of the culture.

With `Cc1cc(C)n(-c2nc3c(c(=O)n2-c2ccc(OC[C@H](C)O)cc2)C[C@@H](C)N(C(=O)c2ccc(Br)c(C(F)(F)F)c2)C3)n1` [Compound 15, (6R)-7-[4-bromo-3-(trifluoromethyl)benzoyl]-2-(3,5-dimethylpyrazol-1-yl)-3-[4-[(2S)-2-hydroxypropoxy]phenyl]-6-methyl-6,8-dihydro-5H-pyrido[3,4-d]pyrimidin-4-one], in data set [1], the EC50 is less than 50 nM. Also, the CC50 at 3 days in data set [2] was more than 500 nM.

Regarding `Cc1cc(C)n(-c2nc3c(c(=O)n2-c2ccc(-c4cnn(C)c4)cn2)C[C@@H](C)N(C(=O)c2ccc(Br)c(C(F)(F)F)c2)C3)n1` [Compound 16, (6R)-7-[4-bromo-3-(trifluoromethyl)benzoyl]-2-(3,5-dimethylpyrazol-1-yl)-6-methyl-3-[5-(1-methylpyrazol-4-yl)-2-pyridyl]-6,8-dihydro-5H-pyrido[3,4-d]pyrimidin-4-one], the EC50 in data set [1] was less than 50 nM. The CC50 at 3 days in data set [2] is more than 500 nM.

In data set [1], `Cc1cc(C)n(-c2nc3c(c(=O)n2-c2cc(Cl)c4c(c2)ncn4C)C[C@@H](C)N(C(=O)c2ccc(Br)c(C(F)(F)F)c2)C3)n1` [Compound 17, (6R)-7-[4-bromo-3-(trifluoromethyl)benzoyl]-3-(7-chloro-1-methyl-benzimidazol-5-yl)-2-(3,5-dimethylpyrazol-1-yl)-6-methyl-6,8-dihydro-5H-pyrido[3,4-d]pyrimidin-4-one] had a concentration for a half-maximal effect (EC50) of less than 50 nM. This compound also yielded a CC50 at 3 days in data set [2] of more than 500 nM.

For the compound `CNC(=O)c1ccc(-n2c(-n3nc(C)cc3C)nc3c(c2=O)C[C@@H](C)N(C(=O)c2ccc(Br)c(C(F)(F)F)c2)C3)cn1` [Compound 18, 5-[(6R)-7-[4-bromo-3-(trifluoromethyl)benzoyl]-2-(3,5-dimethylpyrazol-1-yl)-6-methyl-4-oxo-6,8-dihydro-5H-pyrido[3,4-d]pyrimidin-3-yl]-N-methyl-pyridine-2-carboxamide], the EC50 in data set [1] was less than 50 nM. The same compound showed a half-maximal cytotoxic concentration (CC50) at 3 days in data set [2] of more than 500 nM.

`Cc1cc(C)n(-c2nc3c(c(=O)n2-c2cnc4c(c2)ncn4C)C[C@@H](C)N(C(=O)c2ccc(Br)c(C(F)(F)F)c2)C3)n1` [Compound 19, (6R)-7-[4-bromo-3-(trifluoromethyl)benzoyl]-2-(3,5-dimethylpyrazol-1-yl)-6-methyl-3-(3-methylimidazo[4,5-b]pyridin-6-yl)-6,8-dihydro-5H-pyrido[3,4-d]pyrimidin-4-one] registered an EC50 in data set [1] of less than 50 nM. Also, in data set [2], the half-maximal cytotoxic concentration (CC50) at 3 days is more than 500 nM.

`Cc1cc(C)n(-c2nc3c(c(=O)n2-c2cnc4c(ncn4C)n2)C[C@@H](C)N(C(=O)c2ccc(Br)c(C(F)(F)F)c2)C3)n1` [Compound 20, (6R)-7-[4-bromo-3-(trifluoromethyl)benzoyl]-2-(3,5-dimethylpyrazol-1-yl)-6-methyl-3-(1-methylimidazo[4,5-b]pyrazin-5-yl)-6,8-dihydro-5H-pyrido[3,4-d]pyrimidin-4-one] showed an EC50 in data set [1] of less than 50 nM. Moreover, in data set [2], the cytotoxic concentration (CC50) at 3 days was more than 500 nM.

In data set [1], `Cc1cc(C)n(-c2nc3c(c(=O)n2-c2cc(F)c4ncn(C)c4c2)C[C@@H](C)N(C(=O)c2ccc(Br)c(C(F)(F)F)c2)C3)n1` [Compound 21, (6R)-7-[4-bromo-3-(trifluoromethyl)benzoyl]-2-(3,5-dimethylpyrazol-1-yl)-3-(7-fluoro-3-methyl-benzimidazol-5-yl)-6-methyl-6,8-dihydro-5H-pyrido[3,4-d]pyrimidin-4-one] returned an EC50 of less than 50 nM. In data set [2], this compound had a half-maximal cytotoxic concentration (CC50) at 3 days of more than 500 nM.

`Cc1cc(C)n(-c2nc3c(c(=O)n2-c2cc(F)c4c(c2)ncn4C)C[C@@H](C)N(C(=O)c2ccc(Br)c(C(F)(F)F)c2)C3)n1` [Compound 22, (6R)-7-[4-bromo-3-(trifluoromethyl)benzoyl]-2-(3,5-dimethylpyrazol-1-yl)-3-(7-fluoro-1-methyl-benzimidazol-5-yl)-6-methyl-6,8-dihydro-5H-pyrido[3,4-d]pyrimidin-4-one] yielded an EC50 in data set [1] of less than 50 nM. The half-maximal cytotoxic concentration (CC50) at 3 days in data set [2] is more than 500 nM.

The term EC50 denotes the midpoint of the concentration-response curve. Lower therefore signals greater potency. Usually CC50 stands for the concentration that lowers cell viability or growth by half. Read a low CC50 as harm at low concentration.

The record behind these values is patent US20230382909A1, “BICYCLIC COMPOUNDS” (Aligos Therapeutics, Inc., priority 2022, published 2023).
